Measured values published in patent publication US20110229412A1, “ANIMAL MODEL OF CENTRAL NEUROPATHIC PAIN AND MEHTODS OF MAKING AND USING THE SAME” (priority 2008, published 2011).
“Also recorded” adds a separate entry of the source.

Test system: rats having DREZs avulsed at T13/L1
Assay: Allodynia (von Frey test) in rat T13/L1 DREZ avulsion model of central neuropathic pain
Assay type: in vivo
Procedure: Rats were anesthetized using isoflurane. Under aseptic condition, the skin was incised in the midline along the posterior thoracolumbar region. The paravertebral muscles were retracted laterally to expose the posterior aspect of the spinal laminae. Laminectomies were performed and the dura mater then incised along the midline to expose the dorsal rootlets of T13 and L1. The dorsal rootlets of T13 and L1 were then avulsed out of the spinal cord on the left side using micronstrumentation. Hemostasis was obtained and a layer of gelfoam placed over the dura. The wound was closed in layers. Perioperative antibiotics were administered in prophylaxis against infection. Subject rats were tested for allodynia of the hindpaws with the von Frey hair test, beginning day one post surgery and continuing daily over the subsequent four weeks. Rat animal model was generated similar to above. In one experiment, DREZ avulsion was unilateral (FIG. 2). In one experiment, DREZ avulsion was bilateral (FIG. 3). Ibudilast was delivered intrathecally daily in a corn oil carrier, with sham controls receiving only the corn oil. […] AV411 was administered to animals avulsed at the T13 and L1 dorsal root entry zones. The compound AV411 was administered to animals subject to the T13 and L1 hind paws. […] The reversal begins after 5-6 injections and continues to reverse behavior until day 33. The contralateral paw began to resolve at day 28 and the ipsilateral paw was still sensitive at day 33. […] Response thresholds on the von Frey test were recorded prior to and across a timecourse after avulsion surgery. Beginning on Day 12 post-surgery, rats (n=4/group) received once daily s.c. injections of either the glial activation inhibitor AV411/Ibudilast (Sigma; 5-mg/kg or 10-mg/kg) or equivolume vehicle (corn oil; 0.5-ml/kg). Daily drug treatment and intermittent behavioral testing continued through 33 days after surgery.

CC(C)C(=O)c1c(C(C)C)nn2ccccc12 [AV411, 2-methyl-1-(2-propan-2-ylpyrazolo[1,5-a]pyridin-3-yl)propan-1-one]
onset of reversal of allodynia (once daily s.c. 5-mg/kg or 10-mg/kg from Day 12 post-surgery): 5-6 injections
effect on allodynia induced by unilateral T13/L1 dorsal root avulsion (von Frey test) (once daily s.c. 5-mg/kg or 10-mg/kg from Day 12 post-surgery through day 33): reversed allodynia; also recorded: induces bilateral mechanical allodynia; also recorded: reverses bilateral allodynia
comparison of the 5 mg and 10 mg dose on allodynia (once daily s.c. 5-mg/kg vs 10-mg/kg): not differences between the 5 mg and 10 mg dose
day until which reversal of behavior continues (once daily s.c. from Day 12 post-surgery, days after surgery): ≤ 33 days
effect on allodynia in the model (unilateral (FIG. 2) or bilateral (FIG. 3) DREZ avulsion, delivered intrathecally daily in corn oil carrier): decreases allodynia
